Experimental data as given in patent US9469645B2, “Compounds and compositions for the treatment of parasitic diseases” (Novartis AG, priority 2009, dated 2016).

Key:
[1] = test system: W2 strain; assay: parasite proliferation assay in infected red blood cells (SYBR Green I), W2 strain; format: cell-based; settings: Erythrocyte
Description: Compounds of the invention can be assayed to measure their capacity to inhibit proliferation of parasitemia in infected red blood cells. The proliferation is quantified by the addition of SYBR Green I (INVITROGEN)® dye which has a high affinity for double stranded DNA.

[2] = test system: 3D7 P. falciparum strain; assay: parasite proliferation assay in infected red blood cells (SYBR Green I); format: cell-based, Plasmodium falciparum; settings: Plasmodium falciparum, 3D7, Erythrocyte, 3D7 strain; read-out: EC50 3D7 strain
Summary of the method: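 P. falciparum 3D7 grown in O+ human erythrocytes to 3–8% parasitemia and exposed to compounds. Proliferation read as the increase in parasite DNA. Detection used SYBR Green I in saponin/triton-X/EDTA lysis buffer, with overnight lysis at room temperature.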

`O=C(CN1CCCC(O)C1)N1CCn2c(nc(-c3ccc(F)cc3)c2Nc2ccc(F)cc2)C1` (stereo not drawn) [Compound 64] was tested, and the EC50 [1] was 6460 nM and the EC50 [2] was 9370 nM.

`O=C([C@@H]1CCN1)N1CCn2c(nc(-c3ccc(F)cc3)c2Nc2ccc(Cl)c(F)c2)C1` [Compound 321] gave an EC50 [1] of 11 nM and an EC50 [2] of 20 nM.

`CCn1nccc1Nc1c(-c2ccc(F)cc2)nc2n1CCN(C(=O)CN)C2(C)C` [Compound 601] showed an EC50 ([1]; Plasmodium falciparum) of 4120 nM and an EC50 [2] of 3960 nM.

Molecule `CC(C)(N)C(=O)N1CCn2c(nc(-c3ccc(F)cc3)c2Nc2ccc(Br)cc2)C1` [Compound 21] has an EC50 [1] of 78 nM and an EC50 [2] of 100 nM.

`CCC(=O)Nc1ccc(C[C@H](NC(=O)OC(C)(C)C)C(=O)N2CCn3c(nc(-c4ccc(F)cc4)c3Nc3ccc(C)cc3)C2)cc1` [Compound 185] was tested, and the EC50 [1] was 136 nM and the EC50 [2] was 350 nM.

Molecule `CC1(C)c2nc(-c3ccc(F)cc3)cn2CCN1C(=O)C(N)CC1CCCCC1` (stereo not drawn) [Compound 703] has an EC50 ([1]; Plasmodium falciparum) of 8290 nM and an EC50 [2] of 8570 nM.

In the case of `CC1(C)c2nc(-c3ccc(F)cc3)c(Nc3ccc(F)c(C(F)(F)F)c3)n2CCN1C(=O)CN` [Compound 657], the EC50 ([1]; Plasmodium falciparum) is reported as 1090 nM and the EC50 [2] is reported as 618 nM.

In the case of `Cc1ccc(Nc2c(-c3ccc(F)cc3)nc3n2C(C)(C)CN(C)C3)cc1C#N` [Compound 612], the EC50 ([1]; Plasmodium falciparum) is reported as 6080 nM and the EC50 [2] is reported as 6900 nM.

`NCC(=O)N1CCn2c(nc(-c3ccccc3)c2Nc2ccc3c(c2)OCO3)C1` [Example 1, 2-amino-1-(3-(benzo[d][1,3]dioxol-5-ylamino)-2-phenyl-5,6-dihydroimidazo[1,2-a]pyrazin-7(8H)-yl)ethanone] showed an EC50 [1] of 473 nM and an EC50 [2] of 460 nM.

In the case of `NC(C(=O)N1CCn2c(nc(-c3ccc(F)cc3)c2Nc2ccc(F)cc2)C1)C(F)(F)F` (stereo not drawn) [Compound 50], the EC50 [1] is reported as 187 nM and the EC50 [2] is reported as 180 nM.

`Cc1ccc(Nc2c(-c3ccc(F)cc3)nc3n2CCN(C(=O)CNC(=N)N)C3)cc1` [Compound 167] was tested, and the EC50 [1] was 145 nM and the EC50 [2] was 180 nM.

With `Cc1ccc(Nc2c(-c3ccc(F)cc3F)nc3n2CCN(C(=O)CN)C3)cc1` [Compound 387] the EC50 [1] was 80 nM and the EC50 [2] was 110 nM.

`Cc1ccc(Nc2c(-c3ccc(F)cc3)nc3n2CCCC3)cc1` [Compound 750] gave an EC50 ([1]; Plasmodium falciparum) of 4960 nM and an EC50 [2] of 4770 nM.

`NCC(=O)N1CCn2c(nc(-c3ccc(F)cc3O)c2Nc2ccc(F)cc2)C1` [Compound 51] was tested, and the EC50 [1] was 62 nM and the EC50 [2] was 70 nM.

`CCC(C)(O)CC(=O)N1CCn2c(nc(-c3ccc(F)cc3)c2Nc2ccc(C)cc2)C1` (stereo not drawn) [Compound 143] showed an EC50 [1] of 219 nM and an EC50 [2] of 150 nM.

For `Cc1ccc(Nc2c(-c3ccc(F)cc3)nc3n2CC(=O)NC3(C)C)cc1F` [Compound 598], the EC50 ([1]; Plasmodium falciparum) was 74 nM and the EC50 [2] was 40 nM.

With `CCC(=O)Nc1ccc(C[C@H](NC(=O)OC(C)(C)C)C(=O)N2CCn3c(nc(-c4cccc(F)c4)c3Nc3ccc(Cl)c(F)c3)C2)cc1` [Compound 253] the EC50 [1] was 254 nM and the EC50 [2] was 780 nM.

For `Cc1ccc(Nc2c(-c3ccc(F)cc3)nc3n2CCN(C(=O)[C@@H](O)CC(C)C)C3)cc1` [Compound 134], the EC50 [1] was 7 nM and the EC50 [2] was 10 nM.

In the case of `O=C(C1CNCCO1)N1CCn2c(nc(-c3ccc(F)cc3)c2Nc2ccc(Cl)c(F)c2)C1` (stereo not drawn) [Compound 367], the EC50 [1] is reported as 148 nM and the EC50 [2] is reported as 190 nM.

`Cc1ccc(Nc2c(-c3ccc(F)cc3)nc3n2CCN(C(=O)C(C)(C)Nc2ccc(C)cc2)C3)cc1` [Compound 386] showed an EC50 [1] of 3030 nM and an EC50 [2] of 2620 nM.

With `CC(C)(N)C(=O)N1CCn2c(nc(-c3cccc(F)c3)c2Nc2ccc(F)cc2C(F)(F)F)C1` [Compound 375] the EC50 [1] was 679 nM and the EC50 [2] was 1130 nM.

Work on `O=C(CN1CC[C@H](F)C1)N1CCn2c(nc(-c3ccc(F)cc3)c2Nc2ccc(F)cc2)C1` [Compound 59] yielded an EC50 [1] of 735 nM and an EC50 [2] of 1090 nM.

In the case of `NCC(=O)N1CCn2c(nc(-c3ccccc3)c2NC2CCCC2)C1` [Compound 7], the EC50 [1] is reported as 7780 nM and the EC50 [2] is reported as 15800 nM.

`Cc1ccc(Nc2c(-c3ccc(F)cc3)nc3n2CCN(C(=O)[C@H](C)O)C3)cc1` [Compound 81] was tested, and the EC50 [1] was 449 nM and the EC50 [2] was 300 nM.

Molecule `CC(C)(N)C(=O)N1CCn2c(nc(-c3ccc(F)cc3)c2Nc2ccc(Cl)c(F)c2)C1` [Compound 94] has an EC50 [1] of 52 nM and an EC50 [2] of 40 nM.

Molecule `CC1CCc2nc(-c3ccc(F)cc3)c(Nc3ccc(Cl)c(F)c3)n2C1` (stereo not drawn) [Compound 754] has an EC50 ([1]; Plasmodium falciparum) of 190 nM and an EC50 [2] of 104 nM.

For `N[C@H](Cc1ccccc1)C(=O)N1CCn2c(nc(-c3ccc(F)cc3)c2Nc2ccc(Cl)c(F)c2)C1` [Compound 311], the EC50 [1] was 72 nM and the EC50 [2] was 90 nM.

In the case of `CN1Cc2nc(-c3ccc(F)cc3)c(Nc3ccc(Cl)c(F)c3)n2C(C)(C)C1=O` [Compound 615], the EC50 ([1]; Plasmodium falciparum) is reported as 5610 nM and the EC50 [2] is reported as 6410 nM.

For `CC1(C)c2nc(-c3ccc(F)cc3)c(N[C@@H]3C[C@H]4CC[C@@H]3C4)n2CCN1C(=O)CN` [Compound 667], the EC50 ([1]; Plasmodium falciparum) was 82 nM and the EC50 [2] was 104 nM.

In the case of `O=C(CN1CC[C@@H](F)C1)N1CCn2c(nc(-c3ccc(F)cc3)c2Nc2ccc(F)cc2)C1` [Compound 58], the EC50 [1] is reported as 280 nM and the EC50 [2] is reported as 470 nM.

Work on `CC(C)(O)CC(=O)N1CCn2c(nc(-c3cccc(F)c3)c2Nc2ccc(Cl)c(F)c2)C1` [Compound 234] yielded an EC50 [1] of 111 nM and an EC50 [2] of 130 nM.

For `COc1ccc(-c2nc3n(c2Nc2ccc(F)cc2)CCN(C(=O)CN)C3)cc1` [Compound 53], the EC50 [1] was 1700 nM and the EC50 [2] was 2270 nM.

With `Cc1ccc(Nc2c(-c3ccc(F)cc3)nc3n2CCN(C(=O)C(O)c2ccc(C(F)(F)F)cc2)C3)cc1` (stereo not drawn) [Compound 127] the EC50 [1] was 51 nM and the EC50 [2] was 60 nM.

`CCC(=O)OC(C(=O)N1CCn2c(nc(-c3ccc(F)cc3)c2Nc2ccc(C)cc2)C1)c1ccccc1` (stereo not drawn) [Compound 268] gave an EC50 [1] of 12 nM and an EC50 [2] of 10 nM.

`CC(C)(C)CC(C)(C)Nc1c(-c2ccccc2OCCO)nc2ccccn12` [Compound 746] was tested, and the EC50 ([1]; Plasmodium falciparum) was 6940 nM and the EC50 [2] was > 10000 nM.

For `Cc1ccc(Nc2c(-c3ccc(F)cc3)nc3n2CCN(C(=O)C(C)(N)C(F)(F)F)C3)cc1` (stereo not drawn) [Compound 366], the EC50 [1] was 1820 nM and the EC50 [2] was 3470 nM.

In the case of `Cc1ccc(Nc2c(-c3ccc(F)cc3)nc3n2CCN(C(=O)C(O)c2ccccc2Cl)C3)cc1` (stereo not drawn) [Compound 131], the EC50 [1] is reported as 30 nM and the EC50 [2] is reported as 40 nM.

`NC1(C(=O)N2CCn3c(nc(-c4ccc(F)cc4)c3Nc3ccc(F)cc3)C2)CC1` [Compound 45] was tested, and the EC50 [1] was 1340 nM and the EC50 [2] was 980 nM.

Work on `CCCCC(=O)Nc1ccc(C[C@H](NC(=O)OC(C)(C)C)C(=O)N2CCn3c(nc(-c4cccc(F)c4)c3Nc3ccc(F)cc3)C2)cc1` [Compound 254] yielded an EC50 [1] of 727 nM and an EC50 [2] of 3440 nM.

With `Cc1ccc(Nc2c(-c3ccc(F)cc3)nc3n2CCN(C(=O)[C@H](N)CO)C3)cc1` [Compound 284] the EC50 [1] was 37 nM and the EC50 [2] was 50 nM.

`CC(C)(O)CC(=O)N1CCn2c(nc(-c3ccc(F)cc3)c2Nc2ccc(C#N)cc2)C1` [Compound 265] showed an EC50 [1] of 1580 nM and an EC50 [2] of 1350 nM.

In the case of `Cc1ccc(CC(=O)N2CCn3c(nc(-c4ccc(F)cc4)c3Nc3ccc(C)cc3)C2)cc1` [Compound 232], the EC50 [1] is reported as 44 nM and the EC50 [2] is reported as 50 nM.

`Cc1ccc(Nc2c(-c3ccc(F)cc3)nc3n2CCN(C(=O)CNc2ccc(C)cc2C)C3)cc1` [Compound 384] showed an EC50 [1] of 889 nM and an EC50 [2] of 470 nM.

Work on `NCCCC(=O)N1CCn2c(nc(-c3ccc(F)cc3)c2Nc2ccc(F)cc2)C1` [Compound 18] yielded an EC50 [1] of 8140 nM and an EC50 [2] of 12300 nM.

`O=C(CNc1ccccc1)N1CCn2c(nc(-c3ccc(F)cc3)c2Nc2ccc(Cl)c(F)c2)C1` [Compound 305] showed an EC50 [1] of 94 nM and an EC50 [2] of 90 nM.
